Like-named read-outs stand apart in the source and are kept apart here.
How the values were obtained:
[1] = biological target: CDK7/cyclinH/MAT1 trimeric complex (Homo sapiens, UniProt P50613); assay: In vitro CDK7 assay, potency of irreversible covalent inhibitors (kinact/KI), coupled PK/LDH ADP readout at 340 nm; details: for Ki: CDK7 (20 nM enz.) (KI, μM); for kinact: read-out: CDK7 (20 nM enz.) (kinact, s^−1), 20 nM enzyme
[2] = test system: RNA Polymerase II Serine 5 phosphorylation (Rpb1 CTD, downstream substrate of CDK7) in A549 cells; assay: Imaging-based cellular RNA PolII Ser5 phosphorylation assay in A549 cells; format: cell-based, human; details: wild-type CDK7, RNA PolII Ser5 phosphorylation, averaged over all measurements; for IC50: Homo sapiens, A549, A549 cells, read-out: CDK7_A549 Wild-type CDK7 (pIC50) (converted)
How it was run: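 IC50 derived by fitting % control (DMSO high, 10 μM reference low) against concentration, with Hill slope. Readout: high-content imaging of phospho-Ser5 Rpb1 CTD antibody staining in fixed, permeabilized A549 cells exposed to compound 3 h after 20 h culture in 1% FBS DMEM.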

[3] = test system: RNA Polymerase II Serine 5 phosphorylation in A549 cells overexpressing CDK7-mutant (C312S); assay: Imaging-based cellular RNA PolII Ser5 phosphorylation assay in A549 cells overexpressing CDK7-mutant (C312S); format: cell-based, human; details: RNA PolII Ser5 phosphorylation, averaged over all measurements; for IC50: Homo sapiens, A549, A549 cells overexpressing CDK7-mutant (C312S), read-out: CDK7_A549 mutant hCDK7(pIC50) (converted)
How it was run: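 Readout was automated imaging of anti-phospho-Ser5 Rpb1 CTD immunofluorescence, with IC50 fitted to % control versus concentration. Cells were A549 stably overexpressing non-covalently targetable CDK7 C312S alongside wild-type, exposed to compound 3 h at 37 °C. DMSO and 10 μM reference compound served as controls.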

[4] = read-out: CDK7 (20 nM enz.) (kinact/KI, M^−1*s^−1), 20 nM enzyme
[5] = read-out: CDK7 (20 nM enz.) (kobs/[I], M^−1*s^−1), 20 nM enzyme

Sequence of CDK7/cyclinH/MAT1 trimeric complex (P50613 whole entry): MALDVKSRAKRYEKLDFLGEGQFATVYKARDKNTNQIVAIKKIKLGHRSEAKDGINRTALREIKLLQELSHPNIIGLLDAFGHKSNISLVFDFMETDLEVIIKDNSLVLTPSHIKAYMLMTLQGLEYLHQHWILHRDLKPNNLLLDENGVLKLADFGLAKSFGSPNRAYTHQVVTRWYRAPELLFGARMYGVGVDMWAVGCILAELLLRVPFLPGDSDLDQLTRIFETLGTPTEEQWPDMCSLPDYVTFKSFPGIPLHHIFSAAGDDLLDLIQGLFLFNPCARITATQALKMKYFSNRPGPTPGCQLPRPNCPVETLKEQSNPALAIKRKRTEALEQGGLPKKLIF
Sequence of CDK7/cyclinH/MAT1 trimeric complex (P51946 whole entry partner): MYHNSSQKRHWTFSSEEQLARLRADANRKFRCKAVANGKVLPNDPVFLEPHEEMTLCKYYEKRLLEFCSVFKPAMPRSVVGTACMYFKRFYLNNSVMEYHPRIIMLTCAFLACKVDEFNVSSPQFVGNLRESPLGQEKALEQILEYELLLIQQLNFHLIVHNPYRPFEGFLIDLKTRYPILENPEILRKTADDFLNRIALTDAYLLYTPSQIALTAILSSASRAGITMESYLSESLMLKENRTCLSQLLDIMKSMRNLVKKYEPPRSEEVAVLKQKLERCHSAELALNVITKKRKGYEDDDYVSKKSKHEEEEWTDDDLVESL
Sequence of CDK7/cyclinH/MAT1 trimeric complex (P51948 whole entry partner): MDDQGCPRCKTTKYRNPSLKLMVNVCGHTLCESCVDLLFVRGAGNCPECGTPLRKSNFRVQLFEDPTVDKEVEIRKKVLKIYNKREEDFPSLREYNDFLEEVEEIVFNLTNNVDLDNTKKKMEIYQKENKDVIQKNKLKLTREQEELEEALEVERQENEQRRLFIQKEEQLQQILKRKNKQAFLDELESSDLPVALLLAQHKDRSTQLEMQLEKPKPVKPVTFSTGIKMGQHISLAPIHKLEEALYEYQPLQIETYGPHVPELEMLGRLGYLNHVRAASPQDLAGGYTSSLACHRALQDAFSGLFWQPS

Row | SMILES | Ki ([1]; 20 nM enzyme) [µM] | kinact [1] [s⁻¹] | kinact/KI [1, 4] [M⁻¹ s⁻¹] | IC50 [2] [nM] | IC50 [3] [nM] | CDK7 (20 nM enz.) (kinact, s^−1) ([1]; 20 nM enzyme) [s⁻¹] | CDK7 (20 nM enz.) (kinact/KI, M^−1*s^−1) ([1]; 20 nM enzyme) [M⁻¹ s⁻¹] | CDK7_A549 Wild-type CDK7 (pIC50) ([2]; A549 cells) | CDK7_A549 mutant hCDK7(pIC50) ([3]; A549 cells overexpressing CDK7-mutant (C312S)) | kinact/KI [1, 5] [M⁻¹ s⁻¹]
1 | C=CC(=O)N1CC[C@@H](N2CC(c3cc4c(c(C5CC5)n3)OCc3c(C5CCOCC5)ccnc3N4)C2)C1 (single isomer, unassigned) [Compound 445] | 0.0844 | 6.94e-05 | 823 | 123 | 8510 | – | – | – | – | –
2 | C=CC(=O)N1CC[C@H](N2CC(c3cc4c(c(C5CC5)n3)OCc3c(N5CCOCC5)ccnc3N4)C2)C1 (single isomer, unassigned) [Compound 447] | 0.143 | – | – | – | – | 7.882e-05 | 551.654 | 6.77 | ~5 | –
3 | CC#CC(=O)N1CC(n2cc(-c3cc(C#N)c4c(c3)Nc3nccc(N5CCOCC5)c3[C@H](C)O4)cn2)C1 (single isomer, unassigned) [Compound 449] | – | – | – | 33.1 | 2340 | – | – | – | – | 328
4 | C=CC(=O)N1CC(N2CC[C@H](c3cc4c(c(C)n3)OCc3c(N5CCOCC5)ccnc3N4)N(C)CC2)C1 (single isomer, unassigned) [Compound 452] | 0.0493 | 4.92e-05 | 997 | 64.6 | 6920 | – | – | – | – | –
5 | C=CC(=O)N1CC(N2CC[C@@H](c3cc4c(c(C)n3)OCc3c(N5CCOCC5)ccnc3N4)N(C)CC2)C1 (single isomer, unassigned) [Compound 454] | 0.245 | 5.68e-05 | 232 | 257 | > 10000 | – | – | – | – | –
6 | C=CC(=O)N1CC[C@H](N2CC(c3cc4c(c(C)n3)O[C@H](C)c3c(N5CCOCC5)ccnc3N4)C2)C1 (single isomer, unassigned) [Compound 455] | – | – | 179 | 91.2 | > 10000 | – | – | – | – | –
7 | C=CC(=O)N1CC[C@@H](N2CC(c3cc4c(c(C)n3)O[C@@H](C)c3c(N5CCOCC5)ccnc3N4)C2)C1 (single isomer, unassigned) [Compound 456] | 24.6 | 0.000114 | 4.65 | 2880 | > 10000 | – | – | – | – | –
8 | C=CC(=O)N1CC[C@@H](N2CC(c3cc4c(c(C)n3)O[C@H](C)c3c(N5CCOCC5)ccnc3N4)C2)C1 (single isomer, unassigned) [Compound 457] | 0.214 | 0.000104 | 485 | 91.2 | > 10000 | – | – | – | – | –
9 | C=CC(=O)N1CC[C@H](N2CC(c3cc4c(c(C)n3)O[C@@H](C)c3c(N5CCOCC5)ccnc3N4)C2)C1 (single isomer, unassigned) [Compound 458] | 19.2 | 6.89e-05 | 3.59 | 5250 | > 10000 | – | – | – | – | –
10 | C=CC(=O)N1CC[C@H](N2CC(c3cc(C#N)c4c(c3)Nc3nccc(N5CCOCC5)c3[C@@H](C)O4)C2)C1 (single isomer, unassigned) [Compound 459] | – | – | – | 72.4 | 4370 | – | – | – | – | 734
11 | C=CC(=O)N1CC[C@H](N2CC(c3cc(C#N)c4c(c3)Nc3nccc(N5CCOCC5)c3[C@H](C)O4)C2)C1 (single isomer, unassigned) [Compound 460] | – | – | 14.4 | 1290 | > 10000 | – | – | – | – | –
12 | C=CC(=O)N1CC[C@@H](N2CC(c3cc(C#N)c4c(c3)Nc3nccc(N5CCOCC5)c3[C@H](C)O4)C2)C1 (single isomer, unassigned) [Compound 461] | – | – | 16.1 | 692 | > 10000 | – | – | – | – | –
13 | C=CC(=O)N1CC[C@@H](N2CC(c3cc(C#N)c4c(c3)Nc3nccc(N5CCOCC5)c3[C@@H](C)O4)C2)C1 (single isomer, unassigned) [Compound 462] | – | – | 509 | 50.1 | 5250 | – | – | – | – | –
14 | C=CC(=O)N1CC[C@H](N2CC(c3cc4c(c(C5CC5)n3)O[C@H](C)c3c(N5CCOCC5)ccnc3N4)C2)C1 (single isomer, unassigned) [Compound 463] | 0.423 | 3.44e-05 | 81.3 | 1050 | > 10000 | – | – | – | – | –
15 | CC#CC(=O)N1CC[C@@H](N2CC(c3cc4c(c(C5CC5)n3)O[C@H](C)c3c(N5CCOCC5)ccnc3N4)C2)C1 (single isomer, unassigned) [Compound 464] | 4.03 | 2.27e-05 | 5.64 | 7590 | > 10000 | – | – | – | – | –
16 | C=CC(=O)N1CCC(N2CC(c3cc4c(c(C)n3)O[C@H](C)c3c(C5CCOCC5)ccnc3N4)C2)CC1 (single isomer, unassigned) [Compound 465] | 0.0329 | 2.79e-05 | 848 | 72.4 | 7080 | – | – | – | – | –
17 | C=CC(=O)N1CC[C@H](N2CC(c3cc4c(c(C5CC5)n3)O[C@@H](C)c3c(N5CCOCC5)ccnc3N4)C2)C1 (single isomer, unassigned) [Compound 466] | 0.0307 | 5.02e-05 | 1630 | 123 | > 10000 | – | – | – | – | –
18 | C=CC(=O)N1CC[C@@H](N2CC(c3cc4c(c(C5CC5)n3)O[C@@H](C)c3c(N5CCOCC5)ccnc3N4)C2)C1 (single isomer, unassigned) [Compound 467] | 0.0121 | 3.18e-05 | 2630 | 117 | > 10000 | – | – | – | – | –

Results, then the compound that gave them:

Row | Ki ([1]; 20 nM enzyme) [µM] | kinact [1] [s⁻¹] | kinact/KI [1, 4] [M⁻¹ s⁻¹] | IC50 [2] [nM] | IC50 [3] [nM] | CDK7 (20 nM enz.) (kinact, s^−1) ([1]; 20 nM enzyme) [s⁻¹] | CDK7 (20 nM enz.) (kinact/KI, M^−1*s^−1) ([1]; 20 nM enzyme) [M⁻¹ s⁻¹] | CDK7_A549 Wild-type CDK7 (pIC50) ([2]; A549 cells) | CDK7_A549 mutant hCDK7(pIC50) ([3]; A549 cells overexpressing CDK7-mutant (C312S)) | kinact/KI [1, 5] [M⁻¹ s⁻¹] | SMILES
19 | 2.21 | 3.64e-05 | 16.5 | 2040 | > 10000 | – | – | – | – | – | C=CC(=O)N1CCC(N2CC(c3cc4c(c(C)n3)O[C@@H](C)c3c(C5CCOCC5)ccnc3N4)C2)CC1 (single isomer, unassigned) [Compound 468]
20 | 1.32 | 4.03e-05 | 30.5 | 2140 | > 10000 | – | – | – | – | – | C=CC(=O)N1CC[C@@H](N2CC(c3cc4c(c(C5CC5)n3)O[C@H](C)c3c(N5CCOCC5)ccnc3N4)C2)C1 (single isomer, unassigned) [Compound 469]
21 | 0.0394 | 3e-05 | 761 | 251 | > 10000 | – | – | – | – | – | CC#CC(=O)N1CC[C@H](N2CC(c3cc4c(c(C5CC5)n3)O[C@@H](C)c3c(N5CCOCC5)ccnc3N4)C2)C1 (single isomer, unassigned) [Compound 470]
22 | 3.64 | 3.28e-05 | 9.02 | 7080 | > 10000 | – | – | – | – | – | CC#CC(=O)N1CC[C@H](N2CC(c3cc4c(c(C5CC5)n3)O[C@H](C)c3c(N5CCOCC5)ccnc3N4)C2)C1 (single isomer, unassigned) [Compound 471]
23 | – | – | 79.5 | 204 | > 10000 | – | – | – | – | – | CC#CC(=O)N1CC[C@@H](N2CC(c3cc4c(c(C5CC5)n3)O[C@@H](C)c3c(N5CCOCC5)ccnc3N4)C2)C1 (single isomer, unassigned) [Compound 472]
24 | – | – | 351 | 204 | 7590 | – | – | – | – | – | CC#CC(=O)N1CC(N2CC(c3cc(C#N)c4c(c3)Nc3nccc(C5CCOCC5)c3[C@@H](C)O4)C2)C1 (single isomer, unassigned) [Compound 475]
25 | – | – | 342 | 166 | > 10000 | – | – | – | – | – | C=CC(=O)N1CC(N2CC(c3cc4c(c(C)n3)O[C@H](C)c3c(C5CCOCC5)ccnc3N4)C2)C1 (single isomer, unassigned) [Compound 477]
26 | – | – | 292 | 158 | > 10000 | – | – | – | – | – | C=CC(=O)N1CC[C@H](N2CC(c3cc4c(c(C)n3)O[C@H](C)c3c(-c5cnn(C)c5)ccnc3N4)C2)C1 (single isomer, unassigned) [Compound 478]
27 | – | – | 2.97 | 4570 | > 10000 | – | – | – | – | – | C=CC(=O)N1CC(N2CC(c3cc4c(c(C)n3)O[C@@H](C)c3c(C5CCOCC5)ccnc3N4)C2)C1 (single isomer, unassigned) [Compound 480]
28 | – | – | 339 | 89.1 | > 10000 | – | – | – | – | – | C=CC(=O)N1CC[C@@H](N2CC(c3cc4c(c(C)n3)O[C@H](C)c3c(-c5cnn(C)c5)ccnc3N4)C2)C1 (single isomer, unassigned) [Compound 482]
29 | – | – | 1.32 | 5620 | > 10000 | – | – | – | – | – | CC#CC(=O)N1CC(N2CC(c3cc(C#N)c4c(c3)Nc3nccc(C5CCOCC5)c3[C@H](C)O4)C2)C1 (single isomer, unassigned) [Compound 486]
30 | – | – | 1.54 | > 10000 | > 10000 | – | – | – | – | – | CC#CC(=O)N1CC(N2CC(c3cc4c(c(C)n3)O[C@@H](C)c3c(C5CCOCC5)ccnc3N4)C2)C1 (single isomer, unassigned) [Compound 487]
31 | 0.328 | 4.23e-05 | 129 | ~302 | > 10000 | – | – | – | – | – | CC#CC(=O)N1CC(N2CC(c3cc4c(c(C)n3)O[C@H](C)c3c(C5CCOCC5)ccnc3N4)C2)C1 (single isomer, unassigned) [Compound 488]
